These are literature values, as cited in US20090053275A1, “Foam/spray producing compositions and dispencing system therefor” (priority 2000, published 2009).

Each structure is given as a SMILES string.

For the compound `Oc1cc(Cl)ccc1Oc1ccc(Cl)cc1Cl` [triclosan], the water solubility entry is reported as “not water soluble”.
